From patent US11312722B2, “Hsp90 inhibitors and uses thereof” (TRUSTEES OF BOSTON UNIVERSITY, priority 2019, dated 2022)
≈ marks a conversion by molar mass, not a printed value. Like-named read-outs stand apart in the source and are kept apart here. Each block holds one compound with its values, some of them ahead of it.

What was measured:
[1] = biological target: T1, C. neoformans Hsp90 NBD (Cryptococcus neoformans, UniProt J9VVA4); experiment: biochemical; assay type: binding; details: SPR, 25° C., read-out: Biacore KD
Procedure: SPR assays. For SPR experiments, Hsp90 NBD expression constructs were modified to encode a C-terminal AviTag™ for site-specific on-column biotinylation with a BirA biotin-ligase kit (Avidity LLC; BirA-500). SPR experiments were performed on a Biacore T200 instrument at 25° C. Biotinylated Hsp90 NBD was diluted to 40 μg/mL and immobilized on a streptavidin chip (Sensor Chip SA, GE Healthcare) at a density of 2000-2500 response units (RU) on the biosensor surface. […] Resulting sensorgrams were analyzed with a fit to a 1:1 binding model, using BIA evaluation software.

[2] = system: C. neoformans (Strain H99); experiment: Antifungal sensitivity testing (MIC), C. neoformans H99; assay type: cell-based
[3] = mouse liver microsomes; for % remaining at 15 min (NADPH-free): NADPH-free control; for % remaining at 15 min / % remaining at 60 min: with NADPH
[4] = in vitro; details: both, CD-1, mouse, liver microsomes
[5] = biological target: T1, C. neoformans Hsp90 NBD; experiment: Protein thermal shift assay, C. neoformans Hsp90 NBD; assay type: binding; details: equimolar protein and ligand (10 μM)
Procedure: […]. Using recombinant proteins, assay-independent nanomolar inhibitory constants (Ki) were defined for these compounds. Binding of the compounds to their relevant NBD by thermal shift denaturation assays was also confirmed. Thermal shift assays were performed under saturating ligand conditions, i.e. equimolar concentrations (10 μM) of protein and ligand. As a result, they can provide only qualitative evidence of target binding, but not a quantitative measurement of ligand affinity. […] […]. C. neoformans or C. albicans Hsp90 NBD was combined with equimolar concentrations of the indicated bioactive inhibitors (10 μM) or DMSO control, in technical triplicates. The protein was heated from 25 to 98.6° C. at 0.2° C./5 s in the presence of Sypro Orange dye. All compounds induce an increase in melting temperature relative to the DMSO control, reported as ΔTm.
Protein thermal shift assays. Thermal melting curves were determined using a Protein Thermal Shift Kit (ThermoFisher #4462263), employing a CFX384 Real-Time PCR System (Bio-Rad, C1000 Touch Thermal Cycler). Reactions were performed in a final volume of 10 μL, and contained purified C. albicans or C. neoformans Hsp90 NBD diluted to 250 μg/mL in Buffer HBS-P (GE Healthcare Life Sciences, 0.01 M HEPES pH 7.4, 0.15 M NaCl, 0.005% v/v Surfactant P20) with 10 μM synthetic analog or DMSO control, and 1× Sypro Orange dye solution. Samples were prepared in triplicate in 384-well white plates (Bio-Rad; HSP3805). The instrument was set to melt curve, step 1 (25° C., 2 min) and step 2 (ramp to 98.6° C., increasing 0.2° C. per 5 s cycle). The inflection point of each curve is defined as the protein melting temperature (Tm). Temperature shift, ΔTm, was recorded as the difference between the Tm of the fungal Hsp90 NBD with compound minus Tm of the protein without compound.

[6] = biological target: Hsp90 (C. albicans whole cell lysate) (Candida albicans (strain SC5314 / ATCC MYA-2876) (Yeast), UniProt P46598); experiment: biochemical; assay type: binding; details: Yes/No call
Procedure, shortened: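 In this fluorescence polarization competition assay, compound titrations in buffer with 0.1 mg/mL bovine gamma globulin were mixed with fungal whole-cell lysate spiked with 0.1 nM Cy3-geldanamycin probe. Plates were incubated 4.5 h at room temperature. EC50 came from 4-parameter fits of probe displacement, normalized to GdA in the same lysate.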

[7] = Cryptococcus neoformans, read-out: C. neo MIC80
[8] = Cryptococcus neoformans, read-out: C. neo MIC90
[9] = Cryptococcus neoformans; read-out: C. neo MIC80
[10] = Cryptococcus neoformans; read-out: C. neo MIC90

T1 sequence (J9VVA4 1-699): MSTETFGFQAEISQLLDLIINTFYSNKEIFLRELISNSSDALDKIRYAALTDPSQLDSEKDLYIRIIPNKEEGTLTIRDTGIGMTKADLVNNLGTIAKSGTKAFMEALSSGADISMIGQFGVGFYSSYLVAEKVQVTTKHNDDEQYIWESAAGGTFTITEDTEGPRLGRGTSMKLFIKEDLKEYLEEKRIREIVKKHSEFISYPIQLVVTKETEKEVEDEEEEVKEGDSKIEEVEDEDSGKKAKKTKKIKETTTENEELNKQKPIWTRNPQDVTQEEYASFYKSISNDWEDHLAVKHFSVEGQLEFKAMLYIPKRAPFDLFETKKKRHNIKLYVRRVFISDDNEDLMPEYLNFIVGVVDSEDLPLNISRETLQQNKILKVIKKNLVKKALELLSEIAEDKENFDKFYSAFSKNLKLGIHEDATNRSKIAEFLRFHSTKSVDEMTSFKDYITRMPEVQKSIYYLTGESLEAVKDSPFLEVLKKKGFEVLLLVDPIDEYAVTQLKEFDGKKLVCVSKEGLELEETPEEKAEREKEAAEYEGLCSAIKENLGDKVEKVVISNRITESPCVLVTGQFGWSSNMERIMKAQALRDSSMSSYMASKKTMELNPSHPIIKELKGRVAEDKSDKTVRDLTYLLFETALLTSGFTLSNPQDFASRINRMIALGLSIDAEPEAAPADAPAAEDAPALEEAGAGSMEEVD

Structure (SMILES): Cn1nc(-c2ccc(OC(F)(F)F)cc2)cc1Nc1cc(O)cc(O)c1C(=O)N1Cc2cn[nH]c2C1 [Compound 132, 5-((1-Methyl-3-(4-(trifluoromethoxy)phenyl)-1H-pyrazol-5-yl)amino)-4-(1H,4H,5H,6H-pyrrolo[3,4-c]pyrazole-5-carbonyl)benzene-1,3-diol]
- Kd [1]: 0.214 µM
- MIC80 [2, 7]: > 25 µM
- MIC90 [2, 8]: > 25 µM
- C. neo Active (cells) ([2]; Yes/No call): No
- % remaining at 15 min (NADPH-free) [3]: 71.7%
- % remaining at 15 min [3]: 63.0%
- % remaining at 60 min [3]: 20.6%
- CLint scaled at 1 μM [4]: 176 mL/min/kg

Structure (SMILES): Cn1nc(-c2ccc(OC(F)(F)F)cc2)cc1Nc1cc(O)cc(O)c1C(=O)N1Cc2cccnc2C1 [Compound 131, 5-((1-Methyl-3-(4-(trifluoromethoxy)phenyl)-1H-pyrazol-5-yl)amino)-4-(5H,6H,7H-pyrrolo[3,4-b]pyridine-6-carbonyl)benzene-1,3-diol]
- Kd [1]: 0.38 µM
- MIC80 [2, 7]: > 25 µM
- MIC90 [2, 8]: > 25 µM
- C. neo Active (cells) ([2]; Yes/No call): No
- % remaining at 15 min (NADPH-free) [3]: 104.1%
- % remaining at 15 min [3]: 35.5%
- % remaining at 60 min [3]: 3.9%
- CLint scaled at 1 μM [4]: 387 mL/min/kg

Structure (SMILES): Cn1nc(-c2ccccc2)cc1Nc1cc(O)cc(O)c1C(=O)N1Cc2ccccc2C1 [Compound 91, 4-(2,3-Dihydro-1H-isoindole-2-carbonyl)-5-((1-methyl-3-phenyl-1H-pyrazol-5-yl)amino]benzene-1,3-diol]
- C. alb Active (biochemical) [6]: Yes
- C. neoformans NBD ΔTm [5]: 11 °C
- MIC80 [2, 9]: > 25 µM
- MIC90 [2, 10]: > 25 µM

Structure (SMILES): CC(C)c1cc(Nc2cc(O)cc(O)c2C(=O)N2Cc3ccccc3C2)n(C)n1 [Compound 100, 4-(2,3-Dihydro-1H-isoindole-2-carbonyl)-5-((1-methyl-3-(propan-2-yl)-1H-pyrazol-5-yl)amino)benzene-1,3-diol]
- C. neoformans NBD ΔTm [5]: 11 °C

Structure (SMILES): Cc1ccccc1-c1cc(Nc2cc(O)cc(O)c2C(=O)N2Cc3ccccc3C2)n(C)n1 [Compound 106, 4-(2,3-Dihydro-1H-isoindole-2-carbonyl)-5-((1-methyl-3-(2-methylphenyl)-1H-pyrazol-5-yl)amino)benzene-1,3-diol]
- C. alb Active (biochemical) [6]: Yes
- C. neoformans NBD ΔTm [5]: 12 °C
- MIC ([2]; Cryptococcus neoformans; C. neoformans H99, RPMI medium, 37° C., 48 h, resazurin): < 10 µM
- MIC80 [2, 9]: < 25 µM
- MIC90 [2, 10]: 25 µM (≈ 11 µg/mL)

Other lines, results leading:

- C. neoformans NBD ΔTm [5]: 12 °C
Structure (SMILES): COc1ccc(Cn2nc(-c3ccccc3)cc2Nc2cc(O)cc(O)c2C(=O)N2Cc3cccc(F)c3C2)cc1 [Compound 27, 4-(4-Fluoro-2,3-dihydro-1H-isoindole-2-carbonyl)-5-((1-((4-methoxyphenyl)methyl)-3-phenyl-1H-pyrazol-5-yl)amino)benzene-1,3-diol]

- C. neoformans NBD ΔTm [5]: 0 °C
Structure (SMILES): Cn1nc(-c2ccc(C(C)(C)C)cc2)cc1Nc1cc(O)cc(O)c1C(=O)N1Cc2ccccc2C1 [Compound 127, 5-((3-(4-tert-Butylphenyl)-1-methyl-1H-pyrazol-5-yl)amino)-4-(2,3-dihydro-1H-isoindole-2-carbonyl)benzene-1,3-diol]

- C. neoformans NBD ΔTm [5]: 14 °C
Structure (SMILES): COc1ccc(Cn2nc(C(C)(C)C)cc2Nc2cc(O)cc(O)c2C(=O)N2Cc3ccccc3C2)cc1 [Compound 49, (2-((3-(tert-Butyl)-1-(4-methoxybenzyl)-1H-pyrazol-5-yl)amino)-4,6-dihydroxyphenyl)(isoindolin-2-yl)methanone]

- C. neoformans NBD ΔTm [5]: 14 °C
Structure (SMILES): COc1ccc(Cn2nc(-c3ccccc3)cc2Nc2cc(O)cc(O)c2C(=O)N2Cc3ccc(F)cc3C2)cc1 [Compound 29, 4-(5-Fluoro-2,3-dihydro-1H-isoindole-2-carbonyl)-5-((1-((4-methoxyphenyl)methyl)-3-phenyl-1H-pyrazol-5-yl)amino)benzene-1,3-diol]
